Columns and labels:
Assay type in all cases: cell-based
BHK-21 cells = test: Anti-fibrosis activity test: inhibition of BHK-21 cell proliferation (CCK-8); settings: Mesocricetus auratus, BHK-21, 48 h
Method in brief: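 BHK-21 cells seeded at 2×10^4 cells/mL, allowed to adhere 24 h at 37° C, 5% CO2, then exposed to compounds at graded concentrations in triplicate for 48 h. CCK-8 added for 2 h and absorbance read at 450 nm; inhibition rate taken as (1−Ai/Ao)×100% and IC50 fitted.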

[1] = tested on: human lung fibroblasts HFL1; test: Anti-fibrosis activity test: inhibition of proliferation of human lung fibroblasts HFL1 (CCK-8); settings: Homo sapiens, HFL1, 48 h
Method in brief: (§1)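 Proliferation read by CCK-8 (2 h, A450) after 48 h compound treatment of cells plated at 2×10^4 cells/mL and allowed 24 h attachment, triplicate per concentration. Inhibition rate derived from absorbance relative to untreated blank, with IC50 fitted; pirfenidone as positive control.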

[2] = tested on: human hepatic stellate cells LX-2; test: Anti-fibrosis activity test: inhibition of proliferation of human hepatic stellate cells LX-2 (CCK-8); settings: Homo sapiens, 48 h
Method in brief: as §1

[3] = tested on: human fibrosarcoma cells HT-1080; test: Anti-fibrosis activity test: inhibition of proliferation of human fibrosarcoma cells HT-1080 (CCK-8); settings: Homo sapiens, HT-1080, 48 h
Method in brief: as §1

[4] = tested on: human dermal fibroblasts CCC-ESF-1; test: Anti-fibrosis activity test: inhibition of proliferation of human dermal fibroblasts CCC-ESF-1 (CCK-8); settings: Fibroblast
Method in brief: as §1

[5] = tested on: human embryonic lung fibroblast IMR-90; test: Anti-fibrosis activity test: inhibition of proliferation of human embryonic lung fibroblast IMR-90 (CCK-8)
Method in brief: as §1

[6] = tested on: cardiac fibroblast RAT-iCell-C002; test: Anti-fibrosis activity test: inhibition of proliferation of cardiac fibroblast RAT-iCell-C002 (CCK-8); settings: Cardiac fibroblast, 48 h
Method in brief: as §1

[7] = tested on: mouse macrophages (RAW264.7); test: Lipopolysaccharide-induced NO secretion in macrophages (Griess); settings: Mus musculus, RAW264.7, 24 h, RAW264.7, LPS 1 μg/ml, a/b isomers given as first/second symbol, read-out: IC50 (μM), inhibition of lipopolysaccharide-induced NO secretion in macrophages
Method in brief: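 Percent inhibition of NO release was measured by Griess absorbance at 548 nm in supernatants. Cells were mouse RAW264.7 macrophages in 10% FBS DMEM, treated with graded compound concentrations and activated by LPS (1 μg/ml) for 24 h.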

[8] = CCK-8, 48 hours after administration
[9] = human lung fibroblasts HFL1, CCK-8, 48 hours
[10] = human hepatic stellate cells LX-2, CCK-8, 48 hours
[11] = human fibrosarcoma cells HT-1080, CCK-8, 48 hours
[12] = human dermal fibroblasts CCC-ESF-1, CCK-8, 48 hours
[13] = human embryonic lung fibroblast IMR-90, CCK-8, 48 hours
[14] = cardiac fibroblast RAT-iCell-C002, CCK-8, 48 hours
[15] = Homo sapiens, CCC-ESF-1 cells, 48 h, CCK-8
[16] = Homo sapiens, IMR-90 cells, 48 h, CCK-8

SMILES | IC50 [3, 11] [mM] | IC50 [7] [µM] | IC50 ([3]; HT-1080 cells, 48 h, CCK-8) [mM] | IC50 (BHK-21 cells; [8]) [mM] | IC50 [1, 9] [mM] | IC50 [2, 10] [mM] | IC50 [4, 12] [mM] | IC50 [5, 13] [mM] | IC50 [6, 14] [mM] | IC50 (BHK-21 cells; 48 h, CCK-8) [mM] | IC50 ([1]; HFL1 cells, 48 h, CCK-8) [mM] | IC50 ([2]; LX-2, 48 h, LX-2 cells, CCK-8) [mM] | IC50 [4, 15] [mM] | IC50 [5, 16] [mM] | IC50 ([6]; RAT-iCell-C002 cells, CCK-8) [mM]
COc1c2c(nc3cc(N4CCNCC4)c(F)cc13)-c1cccn1C2=O [Compound 361b, 7-fluoro-9-methoxy-6-(piperazin-1-yl)-10H-pyrrolizino[1,2-b]quinolin-10-one] | 0.05 to 5 | 1 to 10 |  | 0.05 to 5 | 0.05 to 5 | 5 to 20 | 0.05 to 5 | 0.05 to 5 | 0.05 to 5 |  |  |  |  |  | 
Cc1ccc2[nH]c3c(c(=O)c2c1)-c1cccn1C3=O [Compound 777a, 9-Methyl-5H-pyrrolizino[2,1-b]quinoline-5,11(6H)-dione] |  | 10 to 50 | 0.05 to 5 |  |  |  |  |  |  | < 0.05 | 0.05 to 5 | 0.05 to 5 | 0.05 to 5 | 0.05 to 5 | 0.05 to 5
O=C1c2c(nc3c(Cl)cccc3c2OCc2ccc(Cl)cc2)-c2cccn21 [Compound 451b, 5-chloro-9-((4-chlorobenzyl)oxy)-10H-pyrrolizino[1,2-b]quinolin-10-one] | 0.05 to 5 | 1 to 10 |  | 0.05 to 5 | < 0.05 | 0.05 to 5 | 0.05 to 5 | 0.05 to 5 | 0.05 to 5 |  |  |  |  |  | 
O=C1c2c(n(CCO)c3cc(N4CCNCC4)c(F)cc3c2=O)-c2cccn21 [Compound 348a, 7-Fluoro-4-(2-hydroxyethyl)-6-(piperazin-1-yl)-9H-pyrrolizino[1,2-b]quinoline-9,10(4H)-dione] | 0.05 to 5 | 1 to 10 |  | 20 to 100 | 0.05 to 5 | 0.05 to 5 | 0.05 to 5 | 0.05 to 5 | 0.05 to 5 |  |  |  |  |  | 
O=C1c2nc3ccccc3c(OCCCCN3CCNCC3)c2-c2cccn21 [Compound 794b, 11-(4-(piperazin-1-yl)butoxy)-5H-pyrrolizino[2,1-b]quinolin-5-one] |  | 1 to 10 | 0.05 to 5 |  |  |  |  |  |  | 0.05 to 5 | 0.05 to 5 | 0.05 to 5 | 0.05 to 5 | 0.05 to 5 | 0.05 to 5
O=C1c2c(nc3c(F)c(N4CCNCC4)ccc3c2OCc2ccc(Cl)cc2)-c2cccn21 [Compound 484b, 9-((4-chlorobenzyl)oxy)-5-fluoro-6-(piperazin-1-yl)-10H-pyrrolizino[1,2-b]quinolin-10-one] | 0.05 to 5 | 1 to 10 |  | 0.05 to 5 | 0.05 to 5 | 0.05 to 5 | 0.05 to 5 | 0.05 to 5 | 0.05 to 5 |  |  |  |  |  | 
O=C(Oc1c2c(nc3ccc(F)cc13)-c1cccn1C2=O)c1ccco1 [Compound 150b, 7-fluoro-10-oxo-10H-pyrrolizino[1,2-b]quinolin-9-yl furan-2-carboxylate] | 0.05 to 5 | 1 to 10 |  | 0.05 to 5 | 0.05 to 5 | < 0.05 | 0.05 to 5 | 0.05 to 5 | 0.05 to 5 |  |  |  |  |  | 
Cc1cc2nc3c(c(O)c2cc1C)-c1cccn1C3=O [Compound 781b, 11-hydroxy-8,9-dimethyl-5H-pyrrolizino[2,1-b]quinolin-5-one] |  | 1 to 10 | 0.05 to 5 |  |  |  |  |  |  | 0.05 to 5 | 0.05 to 5 | 0.05 to 5 | 0.05 to 5 | 0.05 to 5 | 0.05 to 5
Cc1ccc2c(=O)c3c([nH]c2c1)C(=O)n1cccc1-3 [Compound 778a, 8-Methyl-5H-pyrrolizino[2,1-b]quinoline-5,11(6H)-dione] |  | 10 to 50 | 0.05 to 5 |  |  |  |  |  |  | 0.05 to 5 | 0.05 to 5 | 0.05 to 5 | 0.05 to 5 | 0.05 to 5 | 0.05 to 5
Cc1cccc2c(O)c3c(nc12)C(=O)n1cccc1-3 [Compound 779b, 11-hydroxy-7-methyl-5H-pyrrolizino[2,1-b]quinolin-5-one] |  | 1 to 10 | 0.05 to 5 |  |  |  |  |  |  | 0.05 to 5 | 0.05 to 5 | 0.05 to 5 | 0.05 to 5 | 0.05 to 5 | 0.05 to 5
O=C1c2c(nc3c(F)cccc3c2OCc2ccc(Cl)cc2)-c2cccn21 [Compound 453b, 9-((4-chlorobenzyl)oxy)-5-fluoro-10H-pyrrolizino[1,2-b]quinolin-10-one] | 0.05 to 5 | 10 to 50 |  | 0.05 to 5 | 0.05 to 5 | 0.05 to 5 | 0.05 to 5 | 0.05 to 5 | 0.05 to 5 |  |  |  |  |  | 
O=C1c2nc3ccccc3c(OCCN3CCCCC3)c2-c2cccn21 [Compound 784b, 11-(2-(piperidin-1-yl)ethoxy)-5H-pyrrolizino[2,1-b]quinolin-5-one] |  | 1 to 10 | 0.05 to 5 |  |  |  |  |  |  | 0.05 to 5 | 0.05 to 5 | 0.05 to 5 | 0.05 to 5 | 0.05 to 5 | 0.05 to 5
O=C1c2c(nc3cc(Cl)ccc3c2OCc2ccc(Cl)cc2)-c2cccn21 [Compound 508b, 6-chloro-9-((4-chlorobenzyl)oxy)-10H-pyrrolizino[1,2-b]quinolin-10-one] | < 0.05 | 1 to 10 |  | 0.05 to 5 | 0.05 to 5 | 0.05 to 5 | 0.05 to 5 | 0.05 to 5 | 0.05 to 5 |  |  |  |  |  | 

More lines, main results first:

IC50 [3, 11] [mM] | IC50 [7] [µM] | IC50 ([3]; HT-1080 cells, 48 h, CCK-8) [mM] | SMILES | IC50 (BHK-21 cells; [8]) [mM] | IC50 [1, 9] [mM] | IC50 [2, 10] [mM] | IC50 [4, 12] [mM] | IC50 [5, 13] [mM] | IC50 [6, 14] [mM] | IC50 (BHK-21 cells; 48 h, CCK-8) [mM] | IC50 ([1]; HFL1 cells, 48 h, CCK-8) [mM] | IC50 ([2]; LX-2, 48 h, LX-2 cells, CCK-8) [mM] | IC50 [4, 15] [mM] | IC50 [5, 16] [mM] | IC50 ([6]; RAT-iCell-C002 cells, CCK-8) [mM]
0.05 to 5 | 1 to 10 |  | O=C1c2c(nc3ccc(C(F)(F)F)cc3c2Oc2ccc(Cl)cc2)-c2cccn21 [Compound 276b, 9-(4-chlorophenoxy)-7-(trifluoromethyl)-10H-pyrrolizino[1,2-b]quinolin-10-one] | 0.05 to 5 | 0.05 to 5 | 0.05 to 5 | 0.05 to 5 | 0.05 to 5 | 0.05 to 5 |  |  |  |  |  | 
0.05 to 5 | 1 to 10 |  | O=C1c2c(n(Cc3ccc(F)cc3)c3cccc(Cl)c3c2=O)-c2cccn21 [Compound 474a, 8-Chloro-4-(4-fluorobenzyl)-9H-pyrrolizino[1,2-b]quinoline-9,10(4H)-dione] | < 0.05 | 0.05 to 5 | 0.05 to 5 | 0.05 to 5 | 0.05 to 5 | 0.05 to 5 |  |  |  |  |  | 
0.05 to 5 | 1 to 10 |  | O=C(O)Cn1c2c(c(=O)c3cc(F)ccc31)C(=O)n1cccc1-2 [Compound 153a, 2-(7-Fluoro-9,10-dioxo-9H-pyrrolizino[1,2-b]quinolin-4(10H)-yl)acetic acid] | < 0.05 | 0.05 to 5 | < 0.05 | 0.05 to 5 | 0.05 to 5 | 0.05 to 5 |  |  |  |  |  | 
0.05 to 5 | 1 to 10 |  | O=C1c2c(nc3cc(Cl)ccc3c2OCc2ccc(F)cc2)-c2cccn21 [Compound 502b, 6-chloro-9-((4-fluorobenzyl)oxy)-10H-pyrrolizino[1,2-b]quinolin-10-one] | 0.05 to 5 | 0.05 to 5 | 0.05 to 5 | 0.05 to 5 | 0.05 to 5 | 0.05 to 5 |  |  |  |  |  | 
0.05 to 5 | 1 to 10 |  | CC(C)=CCOc1c2c(nc3cc(N4CCNCC4)c(F)cc13)-c1cccn1C2=O [Compound 354b, 7-fluoro-9-((3-methylbut-2-en-1-yl)oxy)-6-(piperazin-1-yl)-10H-pyrrolizino[1,2-b]quinolin-10-one] | 0.05 to 5 | 0.05 to 5 | 5 to 20 | 0.05 to 5 | 0.05 to 5 | 0.05 to 5 |  |  |  |  |  | 
0.05 to 5 | 0.1 to 1 |  | O=C1c2c([nH]c3cccc(O)c3c2=O)-c2cccn21 [Compound 470a, 8-Hydroxy-9H-pyrrolizino[1,2-b]quinoline-9,10(4H)-dione] | 0.05 to 5 | 0.05 to 5 | 0.05 to 5 | 0.05 to 5 | 0.05 to 5 | 0.05 to 5 |  |  |  |  |  | 
5 to 20 | 0.1 to 1 |  | O=C1c2c(n(C3CC3)c3cc(N4CCNCC4)c(F)cc3c2=O)-c2cccn21 [Compound 340a, 4-Cyclopropyl-7-fluoro-6-(piperazin-1-yl)-9H-pyrrolizino[1,2-b]quinoline-9,10(4H)-dione] | 0.05 to 5 | 0.05 to 5 | 0.05 to 5 | 0.05 to 5 | 0.05 to 5 | 0.05 to 5 |  |  |  |  |  | 

Reference: patent publication US11040028B2, “Penicinotam derivative, preparation method and use thereof” (OCEAN UNIVERSITY OF CHINA, priority 2017, dated 2021)
